Results on 28 molecules are retold here after patent US12441736B2, “KIF18A inhibitors” (AMGEN INC., priority 2018, dated 2025).

One may read the IC50 as the concentration that gives 50% inhibition.

T1 sequence (Q8NI77 1-467): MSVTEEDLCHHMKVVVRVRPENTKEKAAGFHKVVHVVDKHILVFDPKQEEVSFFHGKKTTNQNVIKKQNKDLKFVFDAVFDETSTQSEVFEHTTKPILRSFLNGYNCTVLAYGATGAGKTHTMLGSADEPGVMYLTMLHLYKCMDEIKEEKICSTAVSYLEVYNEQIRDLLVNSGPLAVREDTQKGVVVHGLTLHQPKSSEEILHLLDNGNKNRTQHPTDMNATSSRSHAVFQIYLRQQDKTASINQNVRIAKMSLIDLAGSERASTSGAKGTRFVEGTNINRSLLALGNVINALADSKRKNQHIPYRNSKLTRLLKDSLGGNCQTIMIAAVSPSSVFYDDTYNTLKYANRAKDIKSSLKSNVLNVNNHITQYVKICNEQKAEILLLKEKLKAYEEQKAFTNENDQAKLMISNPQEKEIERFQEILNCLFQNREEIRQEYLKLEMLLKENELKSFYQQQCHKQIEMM
T1 sequence (P02550 whole entry partner): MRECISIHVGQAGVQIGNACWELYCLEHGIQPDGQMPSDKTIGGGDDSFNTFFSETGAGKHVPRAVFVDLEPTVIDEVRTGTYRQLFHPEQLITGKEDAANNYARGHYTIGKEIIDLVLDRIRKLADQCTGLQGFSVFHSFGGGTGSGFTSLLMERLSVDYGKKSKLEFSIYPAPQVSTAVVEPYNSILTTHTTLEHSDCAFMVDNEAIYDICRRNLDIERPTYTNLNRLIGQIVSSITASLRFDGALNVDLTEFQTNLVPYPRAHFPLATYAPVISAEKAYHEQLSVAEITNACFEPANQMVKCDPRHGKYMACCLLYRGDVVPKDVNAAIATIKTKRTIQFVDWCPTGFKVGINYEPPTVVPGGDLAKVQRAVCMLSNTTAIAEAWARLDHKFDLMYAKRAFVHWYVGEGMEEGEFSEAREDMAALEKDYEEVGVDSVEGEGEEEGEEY
T1 sequence (P02554 whole entry partner): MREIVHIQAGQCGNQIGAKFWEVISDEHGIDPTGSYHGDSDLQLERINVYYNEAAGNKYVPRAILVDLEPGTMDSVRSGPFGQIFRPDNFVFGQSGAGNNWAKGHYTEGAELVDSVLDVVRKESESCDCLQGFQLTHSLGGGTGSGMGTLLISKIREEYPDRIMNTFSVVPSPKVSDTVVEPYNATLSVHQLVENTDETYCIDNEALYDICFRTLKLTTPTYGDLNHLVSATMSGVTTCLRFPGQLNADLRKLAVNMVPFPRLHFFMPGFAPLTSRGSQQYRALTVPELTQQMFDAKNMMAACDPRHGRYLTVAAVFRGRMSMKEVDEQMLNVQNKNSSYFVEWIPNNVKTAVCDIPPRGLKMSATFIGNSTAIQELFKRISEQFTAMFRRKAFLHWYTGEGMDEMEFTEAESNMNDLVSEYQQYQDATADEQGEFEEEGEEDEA

This assay has as its target T1, Recombinant human KIF18A (1-467 His-tagged) protein (Homo sapiens, UniProt Q8NI77).
T1 construct: Recombinant human KIF18A (1-467 His-tagged) protein; His; made in house
Kind of assay: KIF18A Enzyme Assay: microtubule-stimulated ATPase activity (ADP-Glo). As to conditions: 30 nM KIF18A, 30 μg/mL pig microtubules, 75 μM ATP, ADP-Glo luminescence. The format is biochemical. In a few lines:
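His-tagged human KIF18A (1-467, baculovirus), 30 nM, pre-incubated 15 min with compound in Tris pH 7.5 containing 30 μg/mL taxol-stabilised pig microtubules. ATP was then added at Km (75 μM) for 15 min at room temperature. ADP was measured by ADP-Glo luminescence, and IC50 was fitted by 4-parameter logistic over 22 points.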
On the technique in general: ADP-Glo turns the ADP formed in a reaction into a luminescent signal.
For `COCC(C)(CO)Nc1ccc(C(=O)Nc2cccc(N3CCO[C@H](C)C3)n2)c(N2CCC3(CC2)CC3)n1` (stereo partly drawn) [Example 217, 6-((1-hydroxy-3-methoxy-2-methylpropan-2-yl)amino)-N-(6-((R)-2-methylmorpholino)pyridin-2-yl)-2-(6-azaspiro[2.5]octan-6-yl)nicotinamide], the IC50 was 222 nM.
On to `C[C@@H]1CN(c2cccc(NC(=O)c3ccc(NS(C)(=O)=O)nc3N3CCC4(CC3)CC4)n2)CCO1` [Example 218, 2-(6-azaspiro[2.5]octan-6-yl)-N-(6-((2R)-2-methyl-4-morpholinyl)-2-pyridinyl)-6-((methylsulfonyl)amino)-3-pyridinecarboxamide], for which the IC50 stood at 150 nM.
To `CC(C)(CO)Nc1ccc(C(=O)Nc2cccc(N3CC(O)CC3(C)C)n2)c(N2CCC3(CC2)CC3)n1` (stereo not shown) [Example 219, N-(6-(4-hydroxy-2,2-dimethylpyrrolidin-1-yl)pyridin-2-yl)-6-((1-hydroxy-2-methylpropan-2-yl)amino)-2-(6-azaspiro[2.5]octan-6-yl)nicotinamide] belongs 217 nM.
As for `CC(C)(CO)Nc1ccc(C(=O)Nc2cccc(N3CCC(O)C3(C)C)n2)c(N2CCC3(CC2)CC3)n1` (stereo not shown) [Example 221, N-(6-(3-hydroxy-2,2-dimethylpyrrolidin-1-yl)pyridin-2-yl)-6-((1-hydroxy-2-methylpropan-2-yl)amino)-2-(6-azaspiro[2.5]octan-6-yl)nicotinamide], the figure is 357 nM; as for `C[C@@H]1CN(c2cccc(NC(=O)c3ccc(NC(CO)(CO)CO)nc3N3CCC4(CC3)CC4)n2)CCO1` [Example 222, 2-(6-azaspiro[2.5]octan-6-yl)-6-((1,3-dihydroxy-2-(hydroxymethyl)-2-propanyl)amino)-N-(6-((2R)-2-methyl-4-morpholinyl)-2-pyridinyl)-3-pyridinecarboxamide], 88 nM; as for `CNS(=O)(=O)c1ccc(C(=O)Nc2cccc(N3CCO[C@H](C)C3)n2)c(N2CCC3(CC2)CC3)n1` [Example 223, (R)-N-(6-(2-methylmorpholino)pyridin-2-yl)-6-(N-methylsulfamoyl)-2-(6-azaspiro[2.5]octan-6-yl)nicotinamide], 79.4 nM.
As to `C[C@@H]1CN(c2cccc(NC(=O)c3ccc(S(N)(=O)=O)nc3N3CCC4(CC3)CC4)n2)CCO1` [Example 224, 2-(6-azaspiro[2.5]octan-6-yl)-N-(6-((2R)-2-methyl-4-morpholinyl)-2-pyridinyl)-6-sulfamoyl-3-pyridinecarboxamide], the IC50 stood at 68.8 nM.
Turning to `C[C@@H]1CN(c2cccc(NC(=O)c3ccc(S(=O)(=O)NC(C)(C)C)nc3N3CCC4(CC3)CC4)n2)CCO1` [Example 225, 2-(6-azaspiro[2.5]octan-6-yl)-N-(6-((2R)-2-methyl-4-morpholinyl)-2-pyridinyl)-6-((2-methyl-2-propanyl)sulfamoyl)-3-pyridinecarboxamide], the IC50 came out at 102 nM.
To `CC(C)(CO)Nc1ccc(C(=O)Nc2cccc(NCCO)n2)c(N2CCC3(CC2)CC3)n1` [Example 226, 2-(6-azaspiro[2.5]octan-6-yl)-N-(6-((2-hydroxyethyl)amino)-2-pyridinyl)-6-((1-hydroxy-2-methyl-2-propanyl)amino)-3-pyridinecarboxamide] belongs 392 nM.
For `Cc1cc(NC(=O)c2ccc(NC(C)(C)CO)nc2N2CCC3(CC2)CC3)nc(N2CCC[C@@H](O)C2)c1` [Example 227, 2-(6-azaspiro[2.5]octan-6-yl)-6-((1-hydroxy-2-methyl-2-propanyl)amino)-N-(6-((3R)-3-hydroxy-1-piperidinyl)-4-methyl-2-pyridinyl)-3-pyridinecarboxamide], the IC50 was determined as 142 nM.
Take `CC(C)(CO)Nc1ccc(C(=O)Nc2cccc(N3CCC[C@H](O)C3)n2)c(N2CCC3(CC2)CC3)n1` [Example 228, 2-(6-azaspiro[2.5]octan-6-yl)-6-((1-hydroxy-2-methyl-2-propanyl)amino)-N-(6-((3S)-3-hydroxy-1-piperidinyl)-2-pyridinyl)-3-pyridinecarboxamide]: the IC50 stood at 69.7 nM.
As for `CC1(O)CCCN(c2cccc(NC(=O)c3ccc(NC(C)(C)CO)nc3N3CCC4(CC3)CC4)n2)C1` (stereo not drawn) [Example 229, 6-((1-hydroxy-2-methylpropan-2-yl)amino)-N-(6-(3-hydroxy-3-methylpiperidin-l-yl)pyridin-2-yl)-2-(6-azaspiro[2.5]octan-6-yl)nicotinamide], the IC50 is 136 nM.
As to `CC(C)(CO)Nc1ccc(C(=O)Nc2cccc(N3CCCC(O)(CO)C3)n2)c(N2CCC3(CC2)CC3)n1` (stereo not shown) [Example 230, 6-((1-hydroxy-2-methylpropan-2-yl)amino)-N-(6-(3-hydroxy-3-(hydroxymethyl)piperidin-1-yl)pyridin-2-yl)-2-(6-azaspiro[2.5]octan-6-yl)nicotinamide], the IC50 amounted to 114 nM.
Regarding `CC(C)(CO)Nc1ccc(C(=O)Nc2cccc(N3CCCC3(C)CO)n2)c(N2CCC3(CC2)CC3)n1` (stereo not shown) [Example 231, 6-((1-hydroxy-2-methylpropan-2-yl)amino)-N-(6-(2-(hydroxymethyl)-2-methylpyrrolidin-1-yl)pyridin-2-yl)-2-(6-azaspiro[2.5]octan-6-yl)nicotinamide], the IC50 is 134 nM.
Consider `CN(C(=O)OC(C)(C)C)C1CCCN(c2cccc(NC(=O)c3ccc(NC(C)(C)CO)nc3N3CCC4(CC3)CC4)n2)C1` (stereo not shown) [Example 232, tert-butyl (1-(6-(6-((1-hydroxy-2-methylpropan-2-yl)amino)-2-(6-azaspiro[2.5]octan-6-yl)nicotinamido)pyridin-2-yl)piperidin-3-yl)(methyl)carbamate], for which the IC50 was determined as 948 nM.
As for `CNC1CCCN(c2cccc(NC(=O)c3ccc(NC(C)(C)CO)nc3N3CCC4(CC3)CC4)n2)C1` (stereo not shown) [Example 233, 6-((1-hydroxy-2-methylpropan-2-yl)amino)-N-(6-(3-(methylamino)piperidin-1-yl)pyridin-2-yl)-2-(6-azaspiro[2.5]octan-6-yl)nicotinamide], the figure is 999 nM; as for `CC(C)(CO)Nc1ccc(C(=O)Nc2cccc(N3CCCC(NC(=O)OC(C)(C)C)C3)n2)c(N2CCC3(CC2)CC3)n1` (stereo not shown) [Example 234, tert-butyl (1-(6-(6-((1-hydroxy-2-methylpropan-2-yl)amino)-2-(6-azaspiro[2.5]octan-6-yl)nicotinamido)pyridin-2-yl)piperidin-3-yl)carbamate], 1520 nM.
As for `CC(C)(CO)Nc1ccc(C(=O)Nc2cccc(N3CCOC(CN)C3)n2)c(N2CCC3(CC2)CC3)n1` (stereo not shown) [Example 235, N-(6-(2-(aminomethyl)morpholino)pyridin-2-yl)-6-((1-hydroxy-2-methylpropan-2-yl)amino)-2-(6-azaspiro[2.5]octan-6-yl)nicotinamide], the figure is 357 nM; as for `CC(C)(CO)Nc1ccc(C(=O)Nc2cccc(N3CCCC(N)C3)n2)c(N2CCC3(CC2)CC3)n1` (stereo not shown) [Example 236, N-(6-(3-aminopiperidin-1-yl)pyridin-2-yl)-6-((1-hydroxy-2-methylpropan-2-yl)amino)-2-(6-azaspiro[2.5]octan-6-yl)nicotinamide], 388 nM; as for `C[C@@H]1CN(c2cccc(NC(=O)c3cnc(NS(=O)(=O)CCO)cc3N3CCC4(CC3)CC4)n2)CCO1` [Example 237], 66.7 nM.
For the molecule `C[C@@H]1CN(c2cccc(NC(=O)c3ccc(S(C)(=O)=O)nc3N3CCC4(CC3)CC4)n2)CCO1` [Example 238, (R)-N-(6-(2-methylmorpholino)pyridin-2-yl)-6-(methylsulfonyl)-2-(6-azaspiro[2.5]octan-6-yl)nicotinamide], the IC50 came to 284 nM.
As for `C[C@@H]1CN(c2cccc(NC(=O)c3ccc(CS(C)(=O)=O)nc3N3CCC4(CC3)CC4)n2)CCO1` [Example 239, 2-(6-azaspiro[2.5]octan-6-yl)-N-(6-((2R)-2-methyl-4-morpholinyl)-2-pyridinyl)-6-((methylsulfonyl)methyl)-3-pyridinecarboxamide], the figure is 68.1 nM; as for `Cc1cc(NC(=O)c2ccc(CS(C)(=O)=O)nc2N2CCC3(CC2)CC3)nc(N2CCOCC2)c1` [Example 240, 2-(6-azaspiro[2.5]octan-6-yl)-N-(4-methyl-6-(4-morpholinyl)-2-pyridinyl)-6-((methylsulfonyl)methyl)-3-pyridinecarboxamide], 107 nM.
As for `CS(=O)(=O)Cc1ccc(C(=O)Nc2cccc(N3CCC[C@@H](O)C3)n2)c(N2CCC3(CC2)CC3)n1` [Example 241, 2-(6-azaspiro[2.5]octan-6-yl)-N-(6-((3R)-3-hydroxy-1-piperidinyl)-2-pyridinyl)-6-((methylsulfonyl)methyl)-3-pyridinecarboxamide], the figure is 101 nM; as for `O=C(Nc1cccc(N2CCC[C@@H](O)C2)n1)c1ccc(C(O)(CO)C(F)(F)F)nc1N1CCC2(CC1)CC2` (stereo partly drawn) [Example 242, N-(6-((R)-3-hydroxypiperidin-l-yl)pyridin-2-yl)-2-(6-azaspiro[2.5]octan-6-yl)-6-(1,1,1-trifluoro-2,3-dihydroxypropan-2-yl)nicotinamide], 78.1 nM.
To `C[C@@H]1CN(c2cccc(NC(=O)c3cnc(NC(C)(C)CO)cc3N3CCC4(CC3)CC4)n2)CCO1` [Example 243, (R)-6-((1-hydroxy-2-methylpropan-2-yl)amino)-N-(6-(2-methylmorpholino)pyridin-2-yl)-4-(6-azaspiro[2.5]octan-6-yl)nicotinamide] belongs 440 nM; to `CC(c1ccc(C(=O)Nc2cccc(N3CCO[C@H](C)C3)n2)c(N2CCC3(CC2)CC3)n1)S(C)(=O)=O` (stereo partly drawn) [Example 244, N-(6-((R)-2-methylmorpholino)pyridin-2-yl)-6-(1-(methylsulfonyl)ethyl)-2-(6-azaspiro[2.5]octan-6-yl)nicotinamide], 51.2 nM; to `O=C(Nc1cccnc1N1CCC2(CC1)CC2)c1cccc(N2CCOCC2)n1` [Example 245, N-(2-(6-azaspiro[2.5]oct-6-yl)-3-pyridinyl)-6-(4-morpholinyl)-2-pyridinecarboxamide], 860 nM.
